{
  "source": "patent US11554188B2",
  "about": "“Anti-viral dry cleaning process” ([…], LLC, priority 2020, dated 2023)",
  "assay_type_in_all_cases": "cell-based",
  "key": {"[1]": {"test_system": "SARS-CoV-2 strain USA-WA1/2020", "conditions": "for Averaged Test Sample Percent Log Reduction to Averaged Virus Controls: averaged over 15, 30, 45 min"}, "[2]": {"test_system": "SARS-CoV-2 strain USA-WA1/2020", "assay": "Drying cycle and washing cycle combined test results (complete dry cleaning process)", "conditions": "for Averaged Test Sample Percent Log Reduction of complete dry cleaning process: wash/spin results combined with heat, liquid and vapor results", "description": "Data shown in Table 2 represents the individual dry cleaning process percent log reduction to the control samples for each coupon set at each process time, and averaged percent reduction of each process on viral deactivation. The silicone wash and spin rinse tests were combined with the heat, silicone liquid, and vapor exposure process results to define the overall percent viral reduction of the complete dry cleaning process. A plot showing the percent log reduction efficacy of each of the simulated dry cleaning processes and the total process in deactivating SARS-CoV-2 infected wool blend fabric material is shown in FIG. 2.\nThis testing was conducted to provide an accurate simulation of patented dry cleaning process in a laboratory environment.\nIt should be noted, that in one simulation of the drying cycle, the combination of heat, vapor, and liquid condition produced a percent log reduction to virus control of 98.00%."}, "[3]": {"test_system": "SARS-CoV-2 strain USA-WA1/2020", "conditions": "Silicone wash, and spin cycle, time 45 min"}, "[4]": {"conditions": "Heat + Liquid + Vapor, 70° C., 15 min"}, "[5]": {"conditions": "Heat + Liquid + Vapor, 70° C., 30 min"}, "[6]": {"conditions": "Heat + Liquid + Vapor, 70° C., 45 min"}, "[7]": {"conditions": "Heat + Silicone Liquid, 70° C., 15 min"}, "[8]": {"conditions": "Heat + Silicone Liquid, 70° C., 30 min"}, "[9]": {"conditions": "Heat + Silicone Liquid, 70° C., 45 min"}, "[10]": {"conditions": "Heat + Silicone Vapor, 70° C., 15 min"}, "[11]": {"conditions": "Heat + Silicone Vapor, 70° C., 30 min"}, "[12]": {"conditions": "Heat + Silicone Vapor, 70° C., 45 min"}, "[13]": {"conditions": "samples G5-15 (condition cell blank; heat + liquid + vapor per Table 2), 15 min"}, "[14]": {"conditions": "samples G5-30 (condition cell blank; heat + liquid + vapor per Table 2), 30 min"}, "[15]": {"conditions": "samples G5-45 (condition cell blank; heat + liquid + vapor per Table 2), 45 min"}, "[16]": {"conditions": "Complete cycle - silicone wash, spin, heat and vapor, time 45 min"}, "[17]": {"conditions": "Silicone wash, and spin cycle, time 45 min"}},
  "note": "Where “and” joins values, the source holds several entries; their conditions need not be identical. Identical values can stand only once. Like-named read-outs stand apart in the source and are kept apart here.",
  "data": [
    {"molecule": "C[Si]1(C)O[Si](C)(C)O[Si](C)(C)O[Si](C)(C)O[Si](C)(C)O1", "note": "[D5, decamethylcyclopentasiloxane]", "values": [
      {"measurement": "TCID50 (individual sample)", "setting": "[1]; D5 Liquid Only Control, 45 min", "result": 31.62},
      {"measurement": "Avg TCID50", "setting": "[1]; Heat & D5 Liquid, 15 min", "result": 789.8},
      {"measurement": "TCID50 (individual sample)", "setting": "[1]; Heat & D5 Liquid, 15 min", "result": "316.2 and 794.3 and 1258.9254"},
      {"measurement": "Avg TCID50", "setting": "[1]; Heat & D5 Liquid, 30 min", "result": 1125},
      {"measurement": "TCID50 (individual sample)", "setting": "[1]; Heat & D5 Liquid, 30 min", "result": "879.9254 and 501.2 and 1995.2623"},
      {"measurement": "Avg TCID50", "setting": "[1]; Heat & D5 Liquid, 45 min", "result": 1590},
      {"measurement": "TCID50 (individual sample)", "setting": "[1]; Heat & D5 Liquid, 45 min", "result": "1258.9254 and 1415.1212 and 2096.18"},
      {"measurement": "Avg TCID50", "setting": "[1]; Heat & D5 Vapor, 15 min", "result": 3389.8041},
      {"measurement": "TCID50 (individual sample)", "setting": "[1]; Heat & D5 Vapor, 15 min", "result": "1995.2623 and 5011.8723 and 3162.2777"},
      {"measurement": "Avg TCID50", "setting": "[1]; Heat & D5 Vapor, 30 min", "result": 2510},
      {"measurement": "TCID50 (individual sample)", "setting": "[1]; Heat & D5 Vapor, 30 min", "result": "5011.8723 and 1258.9254 (2×)"},
      {"measurement": "Avg TCID50", "setting": "[1]; Heat & D5 Vapor, 45 min", "result": 2983},
      {"measurement": "TCID50 (individual sample)", "setting": "[1]; Heat & D5 Vapor, 45 min", "result": "3162.2777 and 3690.622 and 2096.18"},
      {"measurement": "Average of Test Replicates Log10 TCID50", "setting": "[1]; [4]", "result": 1.98},
      {"measurement": "Average of Test Replicates TCID50", "setting": "[1]; [4]", "result": 94.92},
      {"measurement": "Log10 Reduction to virus control", "setting": "[1]; [4]", "result": 1.70},
      {"measurement": "Percent Log Reduction to Virus Control", "setting": "[1]; [4]", "result": 98.00, "unit": "%"},
      {"measurement": "Percent Log Reduction to Virus Control", "setting": "[1]; Heat + Liquid + Vapor, 70° C., 15 min, listed as Silicone", "result": 98.00, "unit": "%"},
      {"measurement": "Average of Test Replicates Log10 TCID50", "setting": "[1]; [5]", "result": 2.14},
      {"measurement": "Average of Test Replicates TCID50", "setting": "[1]; [5]", "result": 138.31},
      {"measurement": "Log10 Reduction to virus control", "setting": "[1]; [5]", "result": 1.54},
      {"measurement": "Percent Log Reduction to Virus Control", "setting": "[1]; [5]", "result": 97.09, "unit": "%"},
      {"measurement": "Average of Test Replicates Log10 TCID50", "setting": "[1]; [6]", "result": 2.37},
      {"measurement": "Average of Test Replicates TCID50", "setting": "[1]; [6]", "result": 232.01},
      {"measurement": "Log10 Reduction to virus control", "setting": "[1]; [6]", "result": 1.31},
      {"measurement": "Percent Log Reduction to Virus Control", "setting": "[1]; [6]", "result": 95.12, "unit": "%"},
      {"measurement": "Averaged Test Sample Percent Log Reduction to Averaged Virus Controls", "setting": "[1]; Heat + Liquid + Vapor, 70° C.", "result": "approximately 96.7%"},
      {"measurement": "Averaged Test Sample Percent Log Reduction to Averaged Virus Controls", "setting": "[1]; Heat + Liquid + Vapor, 70° C., listed as Silicone", "result": 96.74, "unit": "%"},
      {"measurement": "Average of Test Replicates Log10 TCID50", "setting": "[1]; [7]", "result": 2.90},
      {"measurement": "Average of Test Replicates TCID50", "setting": "[1]; [7]", "result": 789.83},
      {"measurement": "Log10 Reduction to virus control", "setting": "[1]; [7]", "result": 0.78},
      {"measurement": "Percent Log Reduction to Virus Control", "setting": "[1]; [7]", "result": 83.39, "unit": "%"},
      {"measurement": "Average of Test Replicates Log10 TCID50", "setting": "[1]; [8]", "result": 3.05},
      {"measurement": "Average of Test Replicates TCID50", "setting": "[1]; [8]", "result": 1125.46},
      {"measurement": "Log10 Reduction to virus control", "setting": "[1]; [8]", "result": 0.63},
      {"measurement": "Percent Log Reduction to Virus Control", "setting": "[1]; [8]", "result": 76.34, "unit": "%"},
      {"measurement": "Average of Test Replicates Log10 TCID50", "setting": "[1]; [9]", "result": 3.20},
      {"measurement": "Average of Test Replicates TCID50", "setting": "[1]; [9]", "result": 1590.08},
      {"measurement": "Log10 Reduction to virus control", "setting": "[1]; [9]", "result": 0.48},
      {"measurement": "Percent Log Reduction to Virus Control", "setting": "[1]; [9]", "result": 66.57, "unit": "%"},
      {"measurement": "Averaged Test Sample Percent Log Reduction to Averaged Virus Controls", "setting": "[1]; Heat + Silicone Liquid, 70° C.", "result": "approximately 75.4%"},
      {"measurement": "Averaged Test Sample Percent Log Reduction to Averaged Virus Controls", "setting": "[1]; Heat + Silicone Liquid, 70° C., listed as Silicone", "result": 75.43, "unit": "%"},
      {"measurement": "Average of Test Replicates Log10 TCID50", "setting": "[1]; [10]", "result": 3.53},
      {"measurement": "Average of Test Replicates TCID50", "setting": "[1]; [10]", "result": 3389.80},
      {"measurement": "Log10 Reduction to virus control", "setting": "[1]; [10]", "result": 0.15},
      {"measurement": "Percent Log Reduction to Virus Control", "setting": "[1]; [10]", "result": 28.72, "unit": "%"},
      {"measurement": "Average of Test Replicates Log10 TCID50", "setting": "[1]; [11]", "result": 3.40},
      {"measurement": "Average of Test Replicates TCID50", "setting": "[1]; [11]", "result": 2509.91},
      {"measurement": "Log10 Reduction to virus control", "setting": "[1]; [11]", "result": 0.28},
      {"measurement": "Percent Log Reduction to Virus Control", "setting": "[1]; [11]", "result": 47.23, "unit": "%"},
      {"measurement": "Average of Test Replicates Log10 TCID50", "setting": "[1]; [12]", "result": 3.47},
      {"measurement": "Average of Test Replicates TCID50", "setting": "[1]; [12]", "result": 2983.03},
      {"measurement": "Log10 Reduction to virus control", "setting": "[1]; [12]", "result": 0.20},
      {"measurement": "Percent Log Reduction to Virus Control", "setting": "[1]; [12]", "result": 37.28, "unit": "%"},
      {"measurement": "Averaged Test Sample Percent Log Reduction to Averaged Virus Controls", "setting": "[1]; Heat + Silicone Vapor, 70° C.", "result": 37.74, "unit": "%"},
      {"measurement": "Average of Test Replicates Log10 TCID50", "setting": "[1]; Silicone Liquid Control, room temperature (23° C.), 45 min", "result": 1.50},
      {"measurement": "Average of Test Replicates TCID50", "setting": "[1]; Silicone Liquid Control, room temperature (23° C.), 45 min, wool blend coupons", "result": 31.62},
      {"measurement": "Avg TCID50", "setting": "[1]; [13]", "result": 91.92},
      {"measurement": "TCID50 (individual sample)", "setting": "[1]; [13]", "result": "79.43 (2×) and 125.9"},
      {"measurement": "Avg TCID50", "setting": "[1]; [14]", "result": 138.3},
      {"measurement": "TCID50 (individual sample)", "setting": "[1]; [14]", "result": "209.618 and 79.43 and 125.9"},
      {"measurement": "Avg TCID50", "setting": "[1]; [15]", "result": 232.1},
      {"measurement": "TCID50 (individual sample)", "setting": "[1]; [15]", "result": "125.9 (2×) and 444.2"},
      {"measurement": "Average of Test Replicates Log10 TCID50", "setting": "[2]; [16]", "result": 4.54},
      {"measurement": "Average of Test Replicates TCID50", "setting": "[2]; [16]", "result": 35138.40},
      {"measurement": "Averaged Test Sample Percent Log Reduction of complete dry cleaning process", "setting": "[2]; Complete cycle - silicone wash, spin, heat and vapor", "result": "approximately 98.6%"},
      {"measurement": "Averaged Test Sample Percent Log Reduction of complete dry cleaning process", "setting": "[2]; Complete cycle - silicone wash, spin, heat and vapor, listed as Silicone", "result": 98.57, "unit": "%"},
      {"measurement": "Log10 Reduction to virus control", "setting": "[2]; [17]", "result": 0.36},
      {"measurement": "Percent Log Reduction to Virus Control", "setting": "[2]; [17]", "result": 56.18, "unit": "%"},
      {"measurement": "optimized calculated log reduction to the average virus controls", "setting": "[2]; serial combination of 56.18% wash cycle reduction and 98.00% drying cycle reduction (heat, vapor, liquid)", "result": 99.12, "unit": "%"},
      {"measurement": "Average of Test Replicates TCID50", "setting": "[3]; 89 mL, 35 RPM 16 min, spin 500 rpm 4 min", "result": 35138.40},
      {"measurement": "Average of Test Replicates Log10 TCID50", "setting": "[3]", "result": 4.54},
      {"measurement": "Averaged Test Sample Percent Log Reduction of complete dry cleaning process", "setting": "[3]", "result": 56.18, "unit": "%"},
      {"measurement": "Log10 Reduction to virus control", "setting": "[3]", "result": 0.36},
      {"measurement": "Percent Log Reduction to Virus Control", "setting": "[3]", "result": 56.18, "unit": "%"},
      {"measurement": "Percent Log Reduction to Virus Control", "setting": "[3]; listed as Silicone", "result": 56.18, "unit": "%"}
    ]}
  ]
}
